Experimental data from paper PMC6268373, “Systematic Study of the Physicochemical Properties of a Homologous Series of Aminobisphosphonates” (Molecules, 2012).
Values after ≈ are worked out from the molar mass of the structure shown. Read-outs that look alike come from different tables or passages of the source.

Key:
[1] = Protonation constants by (traditional) potentiometric titration (TPT), SUPERQUAD; settings: 0.1 M NaNO3, 25 °C; for pKa: aqueous 0.1 M NaNO3, log K, TPT
From the text: Results were obtained from […] as overall stability constants (log β values); following the chosen zero level H2L^2−. This zero level H2L^2− was chosen in the calculations to avoid any accumulation of errors of protonation constants at different pH ranges. The log β results for reactions (4) and (5) obtained in the final refinements are listed in Table S3 (see Supporting Information) with error limits (±3σ), number of points/number of titrations and χ^2/Σ statistics.
The details of the experiments using (traditional) potentiometric titration are presented in the Supporting Information. The results of the determination by Sirius instrument are shown in the Supporting Information. Potentiometric titrations of the compounds were performed with the PCA200 apparatus (Sirius Analytical Instruments Ltd, Forest Row, East Sussex, UK).
Table S2. The effect of pH on aqueous solubility (mg/L) of aminoalkylbis(phosphonates) […]
Solubility (g/L) of Compound
Determination of the Protonation Constants Using (traditional) Potentiometric Titration. Reagents:
Aqueous 0.1 M NaOH was prepared from Titrisol ampoules (Merck) and 0.1 M HNO3 from Convol ampoules (BDH). The background solution was prepared by dissolving NaNO3 in deionised water.
The NaNO3 and NaCl used in reference electrode were p.a. grade (Merck). The water used in the dilutions and titration solutions was purified with Milli-RO and Milli-Q water purification systems […]
Potentiometric measurements: The protonation equilibria was studied in aqueous 0.1 M NaNO3 at 25.0 ± 0.1 °C through a series of potentiometric EMF titrations carried out with a Schott-Geräte GmbH […]
The cell arrangement for the measurement of the hydrogen ion concentration [H+] was as follows:
−RE […] equilibrium solution […] GE+ (1) where GE denotes a glass electrode (Schott N2680), and RE is Hg, Hg2Cl2 […] 0.01 M NaCl, 0.09 M NaNO3. Expression (2) is valid assuming that the activity coefficients are constant.
The cell parameter E0 and the liquid junction coefficient jH, valid in acidic solutions, were determined for each titration by adding a known amount of HNO3 to the background electrolyte. The value of the liquid junction coefficient jOH, valid in basic solutions, was determined periodically. Only stable EMF readings were used in the calculations.
During the measurements of the protonation equilibria, aqueous 0.1 M NaOH or 0.1 M HNO3 was […]
Four to eight independent titrations were carried out for each ligand. The number of data points used in […]
Data treatment: Protonation and deprotonation of the ligands were controlled by addition of HNO3 or NaOH. The curves of ZH versus pH were drawn to visualize the experimental data sets. ZH describes the average number of H+ ions added or liberated per mole of ligand and is given by the relationship […]
where CH denotes the total concentration of protons calculated over the zero level H2L2−.
In the evaluation of the equilibrium constants, the following two-component equilibria were utilized:
H2L2− ⇋ H2-xL(2+x)– + xH+ , x = 1–2; β–x (4) xH+ + H2L2− ⇋ Hx+2Lx–2, x = 1–3; βx (5)
Mathematical analysis of the systems involves a search for protonation models and equilibrium constants that best describe the experimental data. The calculations were carried out with the computer […]
1200). The sample standard deviation Σ and the χ2 statistics used as criteria in the selection of the models were those provided by the program. As a means to improve the confidence level, the error limits for log β values determined in this study are reported as three times the standard deviation estimated by the program.
Figure S2. ZH vs. pH for protonation of compounds (a) 1; (b) 2; (c) 3; (d) 4 and (e) 5.

[2] = Thermal analysis (TG/DTA and TGA 7); assay type: physicochemical; settings: for Td: 5 °C/min; for Temp. range of 1st cleavage: lower limit taken at 0.5 wt-%
[3] = pKa determination with Sirius instrument (PCA200)
[4] = Aqueous solubility of saturated solution at 21 °C (phosphorus determination by molybdenum blue spectrophotometry)
Experimental: A Jasco V-530 UV/Vis spectrophotometer was used for phosphorus determination at 880 nm wavelength. Filtered liquid samples were diluted to the appropriate volume with Milli-Q water and were digested with the persulphate oxidation technique in acidic medium at elevated temperature to convert aminobisphosponates to orthophosphate. In an acidic medium, ammonium molybdate and antimony potassium tartrate react with orthophosphate to form a phosphomolybdic acid that is reduced to intensively colored molybdenum blue by ascorbic acid [30].
The mixture containing an excess of the studied compound was first agitated for predetermined time with magnetic stirrer and before taking the sample mixture was allowed to stand for 24 h without stirring. The sample (about 5 mL) was taken from liquid above the solids, pH was measured and the sample was filtered through 0.2 µm membrane filter to remove any possible insoluble particles. The phosphorus concentration in the filtered sample solution was determined by using the spectrophotometric method described above.

[5] = cited from earlier work; for logK, pKa3: H2L2− + H+ ⇋ H3L−; for logK, pKa2: H3L− + H+ ⇋ H4L; for logK, pKa1: H4L + H+ ⇋ H5L+; for logK, pKa4: HL3− + H+ ⇋ H2L2−; for logK, pKa5: L4− + H+ ⇋ HL3−
[6] = overall protonation, zero level H2L2−

Compound: NCCC(O)(P(=O)(O)O)P(=O)(O)O [Compound 1, (3-Amino-1-hydroxypropylidene)bisphosphonic acid]
- pKa ([1]; pKa1 (H4L + H+ ⇋ H5L+), approximate values): 1.06
- pKa ([1]; pKa2 (H3L− + H+ ⇋ H4L)): 1.7
- pKa ([1]; pKa3 (H2L2− + H+ ⇋ H3L−)): 5.9
- pKa ([1]; pKa4 (HL3− + H+ ⇋ H2L2−)): 10
- pKa ([1]; pKa5 (L4− + H+ ⇋ HL3−)): 12.9
- logβx ± 3σ, x = 1 (H3L−) [1, 6]: 5.90 ± 0.02
- logβx ± 3σ, x = 2 (H4L) [1, 6]: 7.60 ± 0.05
- logβx ± 3σ, x = 3 (H5L+) [1, 6]: 8.66 ± 0.30
- logβx ± 3σ, x = −1 (HL3−) [1, 6]: −10.04 ± 0.03
- logβx ± 3σ, x = −2 (L4−) [1, 6]: −22.90 ± 0.23
- Onset temperature of first cleavage ([2]; TG/DTA, higher crucible): 149 °C
- Td ([2]; TG/DTA, higher crucible, air): 149 °C
- Temp. range of 1st cleavage ([2]; TG/DTA, higher crucible): 134–199 °C
- Onset temperature of first cleavage ([2]; TGA 7, shallow crucible): 155 °C
- Td ([2]; TGA 7, shallow crucible, air): 155 °C
- Temp. range of 1st cleavage ([2]; TGA 7, shallow crucible): 102–203 °C
- Td (decomposition onset) ([2]; average from both instruments, air, heating rate 5 °C/min): 152 °C
- temperature of first decomposition step (cleavage of amino group / degradation) ([2]; thermogravimetry, air): 100–200 °C
- pKa 2 (Sirius) [3]: 2.32
- pKa 3 (Sirius) [3]: 5.93
- pKa 4 (Sirius) [3]: 10.05
- pKa 5 (Sirius) [3]: 12.54
- solubility at 30 min ([4]; Milli-Q water, unbuffered, 21 °C, water, thermodynamic from solid): 10.9 mg/mL (≈ 46.5 mM)
- pH of saturated solution ([4]; saturated aqueous solution, 21 °C, agitation time 30 min): 4.62
- water solubility (in words) ([4]; water): almost freely soluble
- logK, pKa3 ([5]; first Ref.18 column): 6.01
- logK, pKa3 ([5]; ref 4): 5.86
- logK, pKa3 ([5]; ref 13): 5.83
- logK, pKa3 ([5]; ref 14): 5.85
- logK, pKa3 ([5]; ref 15): 6.01
- logK, pKa3 ([5]; ref 17): 6.04
- logK, pKa3 ([5]; second Ref.18 column): 5.39
- logK, pKa2 ([5]; ref 4): 2.04
- logK, pKa2 ([5]; ref 13): 2.55
- logK, pKa2 ([5]; ref 14): 1.80
- logK, pKa2 ([5]; ref 15): 2.56
- logK, pKa2 ([5]; ref 17): 1.93
- logK, pKa1 ([5]; ref 14): <1.2
- logK, pKa1 ([5]; ref 17): 1.24
- logK, pKa4 ([5]; first Ref.18 column): 9.97
- logK, pKa4 ([5]; ref 4): 9.90
- logK, pKa4 ([5]; ref 13): 9.9
- logK, pKa4 ([5]; ref 14): 10.30
- logK, pKa4 ([5]; ref 15): 9.80
- logK, pKa4 ([5]; ref 17): 10.18
- logK, pKa4 ([5]; second Ref.18 column): 9.46
- logK, pKa5 ([5]; first Ref.18 column): 10.74
- logK, pKa5 ([5]; ref 4): 11.02
- logK, pKa5 ([5]; ref 13): 10.8
- logK, pKa5 ([5]; ref 14): 13.06
- logK, pKa5 ([5]; ref 15): 10.95
- logK, pKa5 ([5]; ref 17): 12.14
- logK, pKa5 ([5]; second Ref.18 column): 10.40
